How the values were obtained:
Assay type in all cases: in vivo
[1] = Sensory evaluation of CC-00367 and CC-00371 vs Reb M 95% (trained sensory panel taste test, mock beverage samples, 400 ppm in water at 4° C.); details: mean panel score; for Bitter Aftertaste Intensity: bitter intensity 1 minute after tasting; for Overall Max Sweetness: from the time the sip is taken up to 1 minute; for Bitter Intensity In Mouth: maximum level of bitterness in mouth during 5 seconds; for Sweet Intensity In Mouth: maximum level of sweetness in mouth during 5 seconds; for Sweet Linger Intensity: sweet intensity 1 minute after tasting
Procedure: FIG. 1: Taste attribute comparison of CC-00371 and CC-00367 compared to Reb M 95% (all at 400 ppm) in water at 4° C.
(§1) The following mock beverage samples were prepared:
(§2) A trained sensory panel conducted the taste test. Samples were served at approximately 4° C. Panelists were instructed to take 1 sip of the sample, hold in mouth for 5 seconds, expectorate, and rate the given attributes. A 5 minute break was placed between each sample and panelists were instructed to cleanse their palates with at least 1 bite of unsalted cracker and 2 sips of filtered water. Samples were randomized within each session for each panelist.
(§3) The following attributes were evaluated: • Sweet taste intensity: maximum level of sweetness in mouth during 5 seconds • Bitter taste intensity: maximum level of bitterness in mouth during 5 seconds • Overall maximum sweet intensity: maximum sweet intensity experienced from the time the sip is taken up to 1 minute • Overall maximum bitter intensity: maximum sweet intensity experienced from the time the sip is taken up to 1 minute • Sweet linger intensity: sweet intensity 1 minute after tasting the sample • Bitter aftertaste intensity: bitter intensity 1 minute after tasting the sample
(§4) An ANOVA, with Sample as fixed effects and Panelist as random effects was used to determine significance between the samples for each attribute at the 90% and 95% Confidence Level, two-tailed. Fishers LSD was used to determine significant differences between mean scores.
The results are shown in Table 75 and depicted in FIG. 1: […]

[2] = as above; details: mean panel score, from the time the sip is taken up to 1 minute
[3] = Sensory evaluation of CC-00401 and CC-00403 vs 7% Sucrose (trained sensory panel taste test, mock beverage samples at 4° C.); set-up: Sweetness In Mouth / Sweetness Overall Max / Bitterness In Mouth / Bitterness Overall Max: scale not given here; details: mean ± standard deviation, test sweeteners 400 ppm in water, reference 7% sucrose
Procedure: as §1, §2, §3, §4

[4] = Sensory evaluation of CC-00436 vs 5% Sucrose (trained sensory panel taste test, mock beverages at 4° C.); set-up: Sweetness In Mouth / Sweetness Overall Max / Bitterness In Mouth / Bitterness Overall Max: scale not given here; details: mean ± standard deviation, CC-00436 400 ppm in water, reference 5% sucrose
Procedure: The following mock beverages were prepared: A trained sensory panel conducted the taste test. Samples were served at approximately 4° C. Panelists were instructed to take 1 sip of the sample, hold in mouth for 5 seconds, expectorate, and rate the given attributes. A 5 minute break was placed between each sample and panelists were instructed to cleanse their palates with at least 1 bite of unsalted cracker and 2 sips of filtered water. Samples were randomized within each session for each panelist. The following attributes were evaluated: • Sweet taste intensity: maximum level of sweetness in mouth during 5 seconds • Bitter taste intensity: maximum level of bitterness in mouth during 5 seconds • Overall maximum sweet intensity: maximum sweet intensity experienced from the time the sip is taken up to 1 minute • Overall maximum bitter intensity: maximum sweet intensity experienced from the time the sip is taken up to 1 minute • Sweet linger intensity: sweet intensity 1 minute after tasting the sample • Bitter aftertaste intensity: bitter intensity 1 minute after tasting the sample

| Compound | Bitter Aftertaste Intensity [1] | Overall Max Sweetness [1] | Bitter Intensity In Mouth [1] | Sweet Intensity In Mouth [1] | Sweet Linger Intensity [1] | Overall Max Bitterness** [2] | Bitterness In Mouth [3] | Bitterness Linger (~60 sec) [3] | Bitterness Overall Max [3] | Sweetness In Mouth [3] | Sweetness Linger (~60 sec) [3] | Sweetness Overall Max [3] | Bitterness In Mouth [4] | Bitterness Linger (~60 sec) [4] | Bitterness Overall Max [4] | Sweetness In Mouth [4] | Sweetness Linger (~60 sec) [4] | Sweetness Overall Max [4] |
| --- | --- | --- | --- | --- | --- | --- | --- | --- | --- | --- | --- | --- | --- | --- | --- | --- | --- | --- |
| C[C@H](CC[C@@H](O[C@@H]1OC(CO[C@@H]2OC(CO)[C@@H](O)[C@H](O)C2O)C(O)[C@@H](O)C1O[C@@H]1OC(CO)[C@@H](O[C@@H]2OC(CO)[C@@H](O)[C@H](O)C2O)[C@H](O)C1O)C(C)(C)O)[C@H]1CC[C@@]2(C)C3CC=C4[C@@H](CC[C@H](O[C@@H]5OC(CO[C@@H]6OC(CO)[C@@H](O)[C@H](O)C6O)[C@@H](O)[C@H](O)C5O)C4(C)C)[C@]3(C)[C@H](O)C[C@]12C (stereo partly drawn) [CC-00367, mogro-3-O-[β-D-glucopyranosyl (1→6)-β-D-glucopyranoside]-24-O-{[(β-D-glucopyranosyl-(1→4))-β-D-glucopyranosyl-(1→2)]-[β-D-glucopyranosyl-(1→6)]-β-D-glucopyranoside}] | 1.4 B | 4.9 B | 1.3 B | 3.8 B | 2.6 B | 2.2 B |  |  |  |  |  |  |  |  |  |  |  |  |
| C[C@H](CC[C@@H](O[C@@H]1O[C@H](CO[C@@H]2O[C@H](CO[C@@H]3O[C@H](CO)[C@@H](O)[C@H](O)[C@H]3O)[C@@H](O)[C@H](O)[C@H]2O)[C@@H](O)[C@H](O)[C@H]1O[C@@H]1O[C@H](CO)[C@@H](O)[C@H](O)[C@H]1O)C(C)(C)O)[C@H]1CC[C@@]2(C)[C@@H]3CC=C4[C@@H](CC[C@H](O[C@@H]5O[C@H](CO[C@@H]6O[C@H](CO)[C@@H](O)[C@H](O)[C@H]6O)[C@@H](O)[C@H](O)[C@H]5O)C4(C)C)[C@]3(C)[C@H](O)C[C@]12C [CC-00403] |  |  |  |  |  |  | 2.6 ± 3.0 | 2.2 ± 3.4 | 5.0 ± 3.4 | 6.3 ± 1.4 | 3.1 ± 2.5 | 7.0 ± 1.5 |  |  |  |  |  |  |
| C[C@H](CC[C@@H](O[C@@H]1OC(CO[C@@H]2OC(CO)[C@@H](O)[C@H](O)C2O)C(O)[C@@H](O)C1O[C@@H]1OC(CO)[C@@H](O)[C@H](O)C1O)C(C)(C)O)[C@H]1CC[C@@]2(C)C3CC=C4[C@@H](CC[C@H](O[C@@H]5OC(CO[C@@H]6OC(CO[C@H]7OC(CO)[C@@H](O)[C@H](O)C7O)[C@@H](O)[C@H](O)C6O)[C@@H](O)[C@H](O)C5O)C4(C)C)[C@]3(C)[C@H](O)C[C@]12C (stereo partly drawn) [CC-00436, mogro-3-O-[α-D-glucopyranosyl-(1→6)-β-D-glucopyranosyl (1→6)-β-D-glucopyranoside]-24-O-{[β-D-glucopyranosyl-(1→2)]-[β-D-glucopyranosyl-(1→6)]-β-D-glucopyranoside}] |  |  |  |  |  |  |  |  |  |  |  |  | 1.5 ± 1.9 | 0.7 ± 0.8 | 2.1 ± 1.7 | 5.2 ± 2.1 | 2.9 ± 2.5 | 5.7 ± 2.1 |
| C[C@H](CC[C@@H](O[C@@H]1O[C@H](CO[C@@H]2O[C@H](CO)[C@@H](O)[C@H](O)[C@H]2O)[C@@H](O)[C@H](O)[C@H]1O[C@@H]1O[C@H](CO)[C@@H](O)[C@H](O)[C@H]1O)C(C)(C)O)[C@H]1CC[C@@]2(C)[C@@H]3CC=C4[C@@H](CC[C@H](O[C@@H]5O[C@H](CO[C@@H]6O[C@H](CO)[C@@H](O)[C@H](O)[C@H]6O)[C@@H](O)[C@H](O)[C@H]5O)C4(C)C)[C@]3(C)[C@H](O)C[C@]12C [Mog V] | 0.4 | 8.5 | 0.5 | 7.0 | 3.5 | 1.1 |  |  |  |  |  |  |  |  |  |  |  |  |
| C=C1C[C@@]23CC[C@H]4[C@@](C)(CCC[C@@]4(C)C(=O)O[C@@H]4O[C@H](CO)[C@@H](O)[C@H](O[C@@H]5O[C@H](CO)[C@@H](O)[C@H](O)[C@H]5O)[C@H]4O[C@@H]4O[C@H](CO)[C@@H](O)[C@H](O)[C@H]4O)[C@@H]2CC[C@]1(O[C@@H]1O[C@H](CO)[C@@H](O)[C@H](O[C@@H]2O[C@H](CO)[C@@H](O)[C@H](O)[C@H]2O)[C@H]1O[C@@H]1O[C@H](CO)[C@@H](O)[C@H](O)[C@H]1O)C3 [Reb M 95%, rebaudioside M, reference compound] | 1.7 B | 9.2 A | 1.0 B | 8.0 A | 5.3 A | 2.0 B |  |  |  |  |  |  |  |  |  |  |  |  |
| OC[C@H]1O[C@@](CO)(O[C@H]2O[C@H](CO)[C@@H](O)[C@H](O)[C@H]2O)[C@@H](O)[C@@H]1O [Sucrose, sucrose, reference compound] |  |  |  |  |  |  | 2.3 ± 2.3 | 0.8 ± 1.1 | 2.8 ± 2.1 | 7.2 ± 0.9 | 2.1 ± 1.8 | 7.4 ± 0.8 | 0.15 ± 0.2 | 0.1 ± 0.1 | 0.3 ± 0.3 | 4.3 ± 2.1 | 1.6 ± 1.8 | 4.5 ± 1.9 |
| mogro-3-O-[β-D-glucopyranosyl (1→6)-β-D-glucopyranoside]-24-O-{[β-D-glucopyranosyl-(1→2)]-[(β-D-glucopyranosyl-(1β3))-β-D-glucopyranosyl-(1β6)]-β-D-glucopyranoside} [CC-00371] | 1.5 B | 9.3 A | 0.9 B | 7.5 A | 5.8 A | 2.1 B |  |  |  |  |  |  |  |  |  |  |  |  |

— patent US12281139B2, “Mogrosides, methods of obtaining the same, and uses” (The Coca-Cola Company, priority 2018, dated 2025)
